Patent US7148229B2, “Sulfonamide substituted xanthine derivatives” (Hoffman-La Roche Inc., priority 2003, dated 2006)
Where a name gives a salt, the structure may show the parent alone.

The compounds below were run against T1, recombinant human cytosolic PEPCK (GST-PEPCK) (Homo sapiens, UniProt P35558) (assay: PEPCK enzyme assay (coupled to pyruvate kinase / lactate dehydrogenase, absorbance at 340 nm)). Conditions: in vitro PEPCK enzymatic assay; GTP at 3 fold and OAA at 10 fold Km; final DMSO 10%; room temperature, twenty minutes.
T1 construct: made in house; host or cells: E. coli
T1 sequence (P35558 1-622): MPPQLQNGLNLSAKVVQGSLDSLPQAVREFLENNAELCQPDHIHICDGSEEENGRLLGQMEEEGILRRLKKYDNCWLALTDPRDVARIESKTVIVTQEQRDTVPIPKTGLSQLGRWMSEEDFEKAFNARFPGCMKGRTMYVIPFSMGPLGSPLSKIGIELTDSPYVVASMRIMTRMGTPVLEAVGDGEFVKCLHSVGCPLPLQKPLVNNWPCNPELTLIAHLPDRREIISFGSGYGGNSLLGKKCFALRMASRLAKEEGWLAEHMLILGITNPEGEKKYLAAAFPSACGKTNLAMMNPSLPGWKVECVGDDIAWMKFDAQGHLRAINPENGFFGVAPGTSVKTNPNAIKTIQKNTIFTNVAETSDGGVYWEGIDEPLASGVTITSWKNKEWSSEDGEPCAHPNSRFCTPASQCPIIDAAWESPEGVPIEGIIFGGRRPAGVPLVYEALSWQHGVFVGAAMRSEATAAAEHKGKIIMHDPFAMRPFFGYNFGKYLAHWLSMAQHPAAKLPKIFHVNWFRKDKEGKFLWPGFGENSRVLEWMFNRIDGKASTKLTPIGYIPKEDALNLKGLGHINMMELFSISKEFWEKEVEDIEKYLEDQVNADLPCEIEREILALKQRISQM
Format: biochemical
Procedure: E. coli cells expressing GST-PEPCK were suspended in 5 volumes of lysis buffer (50 mM Tris-hydroxymethyl aminomethyl (TRIS), 150 mM sodium chloride (NaCl), 10 mM ethylene-diametetraacetic acid (EDTA), 5 mM dithiothreitol(DTT), 1% Nonidet P-40, pH 7.4) in the presence of protease inhibitors, incubated with lysozyme at 200 micrograms/ml for 30 min. at room temperature, and sonicated 4×30 seconds at 4 degrees C. After centrifugation at 12,000×g for 20 min. to remove insoluble material, the supernatant was loaded onto glutathione Sepharose (Pharmacia), washed with lysis buffer followed by washing with lysis buffer in the absence of NP-40. GST-PEPCK was eluted with the same buffer containing 20 mM glutathione. The eluted protein was concentrated and dialyzed against 25 mM Hepes(N-[2-hydroxyethyl]piperazine-N′[2-ethanesulfonic acid), 150 mM NaCl, 2.5 mM EDTA, 5 mM DTT, 30% glycerol, pH 7.4, and stored at −20° C.
The inhibitory effect of the compounds of the present invention on PEPCK enzymatic activity was determined using recombinant human cytosolic PEPCK, expressed and purified from E.coli as a GST-fusion. Guanosine triphosphate (GTP) and manganese dependent PEPCK enzyme activity catalyzed the decarboxylation of oxalacetate leading to the formation of guanosine diphosphate (GDP) and phosphoenol pyruvate (PEP). This reaction is coupled to pyruvate kinase and lactate dehydrogenase catalyzed reactions and the overall reaction rate determined by measuring the change in absorbance at 340 nm (Chang, H. C. and Lane M. D., J. Biol. Chem. 241:2413–2420, 1966). The following modifications were made to the protocol: 2.5 μg of recombinant, human cytosolic glutathione-S-transferase (GST)-PEPCK was added to a reaction mixture at room temperature which contained 0.3 mM GTP, 0.3 mM oxaloacetate (OAA), 3 mM magnesium chloride (MgCl2), 0.075 mM manganese chloride (MnCl2), 30 mM potassium phosphates (KPO4), pH 7.6, 1 mM dithiothreitol (DTT), 0.2 mM adenosine diphosphate (ADP), 1 mM nicotinamide adenine dinucleotide, reduced form (NADH), 0.9 Units/ml each of pyruvate kinase and lactate dehydrogenase and 1 mg/ml bovine serum albumin (BSA). Test compounds were added such that final concentration of DMSO was 10%. Reactions were run for twenty minutes.
Km values for GTP and OAA were determined according to Michelis-Menton conditions as described in Comish-Bowden (Fundamentals of Enzyme Kinetics, 1995) in essentially the coupled assay conditions described above. […] Test compounds were added to reactions over a range of concentrations and IC50's were calculated from plots of inhibitor concentration versus enzyme rate. This method of determination of IC50 values is equally applicable to calculations based on PEPCK cellular assay.

Row | IC50 [nM] | SMILES
1 | 290 | Cc1nn(C)c(Cl)c1S(=O)(=O)Nc1ccc(Cc2nc3c([nH]2)c(=O)n(Cc2ccccc2F)c(=O)n3CC2CC2)cc1 [Example 1, 5-Chloro-1,3-dimethyl-1H-pyrazole-4-sulfonic acid {4-[3-cyclopropylmethyl-1-(2-fluoro-benzyl)-2,6-dioxo-2,3,6,7-tetrahydro-1H-purin-8-ylmethyl]-phenyl}-amide]
2 | 390 | Cn1cc(S(=O)(=O)Nc2ccc(Cc3nc4c([nH]3)c(=O)n(Cc3ccccc3F)c(=O)n4CC3CC3)cc2)cn1 [Example 2, 1-Methyl-1H-pyrazole-4-sulfonic acid {4-[3-cyclopropylmethyl-1-(2-fluoro-benzyl)-2,6-dioxo-2,3,6,7-tetrahydro-1H-purin-8-ylmethyl]-phenyl}-amide]
3 | 1200 | COc1cccc(S(=O)(=O)Nc2ccc(Cc3nc4c([nH]3)c(=O)n(Cc3ccccc3F)c(=O)n4CC3CC3)cc2)c1 [Example 3, N-{4-[3-Cyclopropylmethyl-1-(2-fluoro-benzyl)-2,6-dioxo-2,3,6,7-tetrahydro-1H-purin-8-ylmethyl]-phenyl}-3-methoxy-benzenesulfonamide]
4 | 2550 | O=c1c2[nH]c(Cc3ccc(NS(=O)(=O)c4cccc(F)c4)cc3)nc2n(CC2CC2)c(=O)n1Cc1ccccc1F [Example 4, N-{4-[3-Cyclopropylmethyl-1-(2-fluoro-benzyl)-2,6-dioxo-2,3,6,7-tetrahydro-1H-purin-8-ylmethyl]-phenyl}-3-fluoro-benzenesulfonamide]
5 | 4580 | O=c1c2[nH]c(Cc3ccc(NS(=O)(=O)c4cnc(Cl)c(Br)c4)cc3)nc2n(CC2CC2)c(=O)n1Cc1ccccc1F [Example 5, 5-Bromo-6-chloro-pyridine-3-sulfonic acid {4-[3-cyclopropylmethyl-1-(2-fluoro-benzyl)-2,6-dioxo-2,3,6,7-tetrahydro-1H-purin-8-ylmethyl]-phenyl}-amide]
6 | 1100 | Cc1nn(C)c(Cl)c1S(=O)(=O)Nc1cccc(Cc2nc3c([nH]2)c(=O)n(Cc2ccccc2F)c(=O)n3CC2CC2)c1 [Example 6, 5-Chloro-1,3-dimethyl-1H-pyrazole-4-sulfonic acid {3-[3-cyclopropylmethyl-1-(2-fluoro-benzyl)-2,6-dioxo-2,3,6,7-tetrahydro-1H-purin-8-ylmethyl]-phenyl}-amide]
7 | 150 | Cc1nn(C)cc1S(=O)(=O)Nc1ccc(Cc2nc3c([nH]2)c(=O)n(Cc2ccccc2F)c(=O)n3CC2CC2)cc1 [Example 7, 1,3-Dimethyl-1H-pyrazole-4-sulfonic acid {4-[3-cyclopropylmethyl-1-(2-fluoro-benzyl)-2,6-dioxo-2,3,6,7-tetrahydro-1H-purin-8-ylmethyl]-phenyl}-amide]
8 | 220 | CC(=O)Nc1nc(C)c(S(=O)(=O)Nc2ccc(Cc3nc4c([nH]3)c(=O)n(Cc3ccccc3F)c(=O)n4CC3CC3)cc2)s1 [Example 10, N-(5-{4-[3-Cyclopropylmethyl-1-(2-fluoro-benzyl)-2,6-dioxo-2,3,6,7-tetrahydro-1H-purin-8-ylmethyl]-phenylsulfamoyl}-4-methyl-thiazol-2-yl)-acetamide]
9 | 230 | Cc1nc(N)sc1S(=O)(=O)Nc1ccc(Cc2nc3c([nH]2)c(=O)n(Cc2ccccc2F)c(=O)n3CC2CC2)cc1 [Example 11, 2-Amino-4-methyl-thiazole-5-sulfonic acid {4-[3-cyclopropylmethyl-1-(2-fluoro-benzyl)-2,6-dioxo-2,3,6,7-tetrahydro-1H-purin-8-ylmethyl]-phenyl}-amide trifluoro-acetic acid salt]
10 | 790 | Cc1noc(C)c1S(=O)(=O)Nc1ccc(Cc2nc3c([nH]2)c(=O)n(Cc2ccccc2F)c(=O)n3CC2CC2)cc1 [Example 12, 3,5-Dimethyl-isoxazole-4-sulfonic acid {4-[3-cyclopropylmethyl-1-(2-fluoro-benzyl)-2,6-dioxo-2,3,6,7-tetrahydro-1H-purin-8-ylmethyl]-phenyl}-amide]
11 | 340 | Cc1nc(S(=O)(=O)Nc2ccc(Cc3nc4c([nH]3)c(=O)n(Cc3ccccc3F)c(=O)n4CC3CC3)cc2)cn1C [Example 13, 1,2-Dimethyl-1H-imidazole-4-sulfonic acid {4-[3-cyclopropylmethyl-1-(2-fluoro-benzyl)-2,6-dioxo-2,3,6,7-tetrahydro-1H-purin-8-ylmethyl]-phenyl}-amide]
12 | 410 | Cn1cnc(S(=O)(=O)Nc2ccc(Cc3nc4c([nH]3)c(=O)n(Cc3ccccc3F)c(=O)n4CC3CC3)cc2)c1 [Example 14, 1-Methyl-1H-imidazole-4-sulfonic acid {4-[3-cyclopropylmethyl-1-(2-fluoro-benzyl)-2,6-dioxo-2,3,6,7-tetrahydro-1H-purin-8-ylmethyl]-phenyl}-amide]
13 | 960 | CN(C)S(=O)(=O)Nc1ccc(Cc2nc3c([nH]2)c(=O)n(Cc2ccccc2F)c(=O)n3CC2CC2)cc1 [Example 17, N-{4-[3-Cyclopropylmethyl-1-(2-fluoro-benzyl)-2,6-dioxo-2,3,6,7-tetrahydro-1H-purin-8-ylmethyl]-phenyl}-N,N-dimethylsulfamide]
14 | 2050 | Cc1nn(C)c(Cl)c1S(=O)(=O)N(C)c1ccc(Cc2nc3c([nH]2)c(=O)n(Cc2ccccc2F)c(=O)n3CC2CC2)cc1 [Example 18, 5-Chloro-1,3-dimethyl-1H-pyrazole-4-sulfonic acid {4-[3-cyclopropylmethyl-1-(2-fluoro-benzyl)-2,6-dioxo-2,3,6,7-tetrahydro-1H-purin-8-ylmethyl]-phenyl}-methyl-amide]
15 | 450 | O=c1c2[nH]c(Cc3ccc(NS(=O)(=O)c4cccc5cccnc45)cc3)nc2n(CC2CC2)c(=O)n1Cc1ccccc1F [Example 19, Quinoline-8-sulfonic acid {4-[3-cyclopropylmethyl-1-(2-fluoro-benzyl)-2,6-dioxo-2,3,6,7-tetrahydro-1H-purin-8-ylmethyl]-phenyl}-amide]
16 | 6250 | CC(=O)Nc1ccc(S(=O)(=O)Nc2ccc(Cc3nc4c([nH]3)c(=O)n(Cc3ccccc3F)c(=O)n4CC3CC3)cc2)cc1 [Example 20, N-(4-{4-[3-Cyclopropylmethyl-1-(2-fluoro-benzyl)-2,6-dioxo-2,3,6,7-tetrahydro-1H-purin-8-ylmethyl]-phenylsulfamoyl}-phenyl)-acetamide]
17 | 7650 | CCCCn1c(=O)n(Cc2ccccc2)c(=O)c2[nH]c(Cc3ccc(NS(=O)(=O)c4ccc(C)cc4)cc3)nc21 [Example 21, N-[4-(1-Benzyl-3-butyl-2,6-dioxo-2,3,6,7-tetrahydro-1H-purin-8-ylmethyl)-phenyl]-4-methyl-benzenesulfonamide]
18 | 1950 | O=c1c2[nH]c(Cc3ccc(NS(=O)(=O)c4cccnc4)cc3)nc2n(CC2CC2)c(=O)n1Cc1ccccc1F [Example 22, Pyridine-3-sulfonic acid {4-[3-cyclopropylmethyl-1-(2-fluoro-benzyl)-2,6-dioxo-2,3,6,7-tetrahydro-1H-purin-8-ylmethyl]-phenyl}-amide trifluoro-acetic acid salt]
19 | 1250 | CS(=O)(=O)Nc1ccc(Cc2nc3c([nH]2)c(=O)n(Cc2ccccc2F)c(=O)n3CC2CC2)cc1 [Example 23, N-{4-[3-Cyclopropylmethyl-1-(2-fluoro-benzyl)-2,6-dioxo-2,3,6,7-tetrahydro-1H-purin-8-ylmethyl]-phenyl}-methanesulfonamide]
